The values that follow come from PMC10783514, “Synthesis of peptide–siRNA conjugates via internal sulfonylphosphoramidate modifications and evaluation of their in vitro activity” (Nucleic Acids Research, 2023).

SMILES strings stand for the structures.

The target in this experiment is T1, human GLP1R (Homo sapiens, UniProt P43220).
T1 construct: expressed in transfected cells
Description: GLP1R activity assay (CRE/luciferase reporter, cAMP potency). The format is cell-based. The conditions noted are these: BHK cells stably co-expressing human GLP1R and CRE luciferase reporter; 3 h at 37°C; 8 concentrations; four-parameter logistic fit (Hill slope = 1); mean of n = 3 independent experiments; read-out: EC50, activation of GLP1R.
Description: GLP1R activity was measured through cyclic adenosine monophosphate (cAMP) potency using a clonal BHK cell line that stably co-express human GLP1R and the cAMP response element (CRE) luciferase reporter gene, essentially as previously reported ([33]). Briefly, frozen stocks of assay-ready cells were thawed to 37°C, washed once with PBS, and diluted to 100 000 cells/ml in assay buffer (DMEM without phenol red supplemented with 1× GlutaMAX, 10 mM HEPES, 1 w/v% ovalbumin, and 0.1 v/v% Pluronic F-68). Serial dilutions (10-fold dilutions in assay buffer, 8 concentrations for each compound) were made for GLP1–siRNA conjugates and free peptides in 96 well dilution plates using a Biomek i7 liquid handler. Then, 50 μl of each dilution were transferred to 96-well assay plates to which 50 μl of the diluted cell suspension was added (5000 cells/well). Plates were incubated for 3 h at 37°C in 5% CO2, then left at room temperature for 5 min before 100 μl SteadyLite Plus (PerkinElmer) was added to each well. Plates were sealed from light and incubated at room temperature for 30 min while gently shaking before luminescence was detected on a Biotek Synergy 2 plate reader.
This is performed by using a luciferase reporter under the control of CRE in recombinant BHK cells constitutively expressing human GLP1R. […]

T1 sequence (P43220 24-463): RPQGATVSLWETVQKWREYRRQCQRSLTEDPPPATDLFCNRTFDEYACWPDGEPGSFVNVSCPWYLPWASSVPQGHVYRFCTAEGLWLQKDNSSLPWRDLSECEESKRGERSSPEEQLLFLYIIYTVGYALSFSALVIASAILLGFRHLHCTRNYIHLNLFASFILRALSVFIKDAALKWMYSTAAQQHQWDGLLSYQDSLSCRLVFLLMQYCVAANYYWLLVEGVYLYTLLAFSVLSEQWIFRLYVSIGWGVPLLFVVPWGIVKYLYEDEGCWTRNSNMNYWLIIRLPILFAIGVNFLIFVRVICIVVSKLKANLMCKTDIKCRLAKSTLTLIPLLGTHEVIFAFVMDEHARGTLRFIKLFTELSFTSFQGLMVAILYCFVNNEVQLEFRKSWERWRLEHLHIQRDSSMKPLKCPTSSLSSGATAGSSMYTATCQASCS

By EC50 is commonly meant the concentration at which the effect is half-maximal. Turning to `CC[C@H](C)[C@H](NC(=O)[C@H](Cc1ccccc1)NC(=O)[C@H](CCC(=O)O)NC(=O)[C@H](CCCNC(=N)N)NC(=O)[C@H](C)NC(=O)[C@H](C)NC(=O)[C@H](CCC(N)=O)NC(=O)CNC(=O)[C@H](CCC(=O)O)NC(=O)[C@H](CC(C)C)NC(=O)[C@H](Cc1ccc(O)cc1)NC(=O)[C@H](CO)NC(=O)[C@H](CO)NC(=O)[C@@H](NC(=O)[C@H](CC(=O)O)NC(=O)[C@H](CO)NC(=O)[C@@H](NC(=O)[C@H](Cc1ccccc1)NC(=O)[C@@H](NC(=O)CNC(=O)[C@H](CCC(=O)O)NC(=O)[C@H](C)NC(=O)[C@@H](N)Cc1c[nH]cn1)[C@@H](C)O)[C@@H](C)O)C(C)C)C(=O)N[C@@H](C)C(=O)N[C@@H](Cc1c[nH]c2ccccc12)C(=O)N[C@@H](CC(C)C)C(=O)N[C@H](C(=O)N[C@@H](CCCNC(=N)N)C(=O)NCC(=O)N[C@@H](CCCNC(=N)N)C(=O)NCC(=O)N[C@@H](CCCCN)C(=O)O)C(C)C` [A], the EC50 was found to be 9 pM.
